ChEMBL document CHEMBL1136374, “Inactivation of S-adenosyl-L-homocysteine hydrolase with novel 5'-thioadenosine derivatives. Antiviral effects” (Bioorg Med Chem Lett, 2003)
pKi: −log10 of the molar value. Values after ≈ are worked out from the molar mass of the structure shown. Active and inactive are the calls of the source. The calls are words filed in the database; no cut-off is given here.

Key:
HEL [1] = test: Antiviral activity against Cytomegalovirus virus (CMV) strain Davis in HEL cells; No specific activity; type: functional, cell-based; conditions: Homo sapiens
Adenosylhomocysteinase [2] = biological target: T1, Adenosylhomocysteinase (Homo sapiens, UniProt P23526); test: Enzyme kinetic property: kinact value was determined
Target sequence in this assay (P23526 2-432 limits assumed): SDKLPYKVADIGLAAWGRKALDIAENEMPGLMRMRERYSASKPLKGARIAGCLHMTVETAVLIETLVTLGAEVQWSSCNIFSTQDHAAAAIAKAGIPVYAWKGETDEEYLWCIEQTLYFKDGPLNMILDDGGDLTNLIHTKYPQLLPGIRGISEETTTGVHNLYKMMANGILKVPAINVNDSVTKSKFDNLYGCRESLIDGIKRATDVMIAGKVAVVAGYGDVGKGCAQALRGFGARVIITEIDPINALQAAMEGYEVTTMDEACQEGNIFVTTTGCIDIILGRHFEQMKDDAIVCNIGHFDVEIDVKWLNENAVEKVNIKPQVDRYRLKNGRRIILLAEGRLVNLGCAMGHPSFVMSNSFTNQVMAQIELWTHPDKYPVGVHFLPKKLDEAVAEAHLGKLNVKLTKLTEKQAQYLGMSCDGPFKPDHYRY

Coxsackievirus B4 = test: Antiviral activity against Coxsackie B4 virus; No activity; type: functional, organism-based
Punta Toro virus = test: Antiviral activity against Punta Toro virus; No activity; type: functional, organism-based
Sindbis virus = test: Antiviral activity against Sindbis; No activity; type: functional, organism-based
Junin virus = test: Activity against Junin virus was determined; type: functional; conditions: Mammarenavirus juninense
Tacaribe virus = test: Activity against Taccaribe virus was determined; type: functional; conditions: Mammarenavirus tacaribeense
HEL [3] = test: Antiviral activity against Cytomegalovirus virus (CMV) strain AD-169 in HEL cells; No specific activity; type: functional, cell-based; conditions: Homo sapiens
E6SM = test: Compound tested for cytotoxicity in human embryonic skin muscle E6SM cell cultures; type: functional
Adenosylhomocysteinase [4] = biological target: T1, Adenosylhomocysteinase; test: Binding affinity against S-Adenosyl-homocysteine hydrolase was determined
Target sequence in this assay (P23526 whole entry): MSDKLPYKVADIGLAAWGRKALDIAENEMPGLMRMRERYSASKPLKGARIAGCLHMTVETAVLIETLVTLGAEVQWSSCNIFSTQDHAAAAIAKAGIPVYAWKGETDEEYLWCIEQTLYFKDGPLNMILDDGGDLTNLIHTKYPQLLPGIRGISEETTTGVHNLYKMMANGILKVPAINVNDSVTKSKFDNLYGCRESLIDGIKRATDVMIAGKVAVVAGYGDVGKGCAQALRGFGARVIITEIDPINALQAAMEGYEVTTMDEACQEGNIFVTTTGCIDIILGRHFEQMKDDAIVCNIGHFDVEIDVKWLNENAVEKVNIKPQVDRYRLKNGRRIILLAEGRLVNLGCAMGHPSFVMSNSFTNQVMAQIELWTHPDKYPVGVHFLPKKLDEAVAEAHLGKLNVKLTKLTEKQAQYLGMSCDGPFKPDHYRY

Adenosylhomocysteinase [5] = biological target: T1, Adenosylhomocysteinase; test: Change in the S-Adenosyl-homocysteine hydrolase enzyme's NAD+ content until complete inactivation was determined
Target sequence in this assay (P23526 2-432 limits assumed): as the sequence (P23526 2-432 limits assumed) above

Human respirovirus 3 = test: Antiviral activity against Parainfluenza-3; No activity; type: functional, organism-based
Vero = test: Compound tested for cytotoxicity in vero cell culture was determined; type: functional, Chlorocebus sabaeus

Structure (SMILES) | MIC (HEL [1]) | K inact (Adenosylhomocysteinase [2]) [min⁻¹] | MIC (Coxsackievirus B4) | MIC (Punta Toro virus) | MIC (Sindbis virus) | MIC (Junin virus) [µM] | MIC (Tacaribe virus) [µM] | MIC (HEL [3]) | MTC (E6SM) [µM] | pKi (Adenosylhomocysteinase [4]) | NAD (Adenosylhomocysteinase [5]) [%] | MIC (Human respirovirus 3) | MTC (Vero) [µM]
C=CSC[C@H]1OC(n2cnc3c(N)ncnc32)[C@H](O)[C@@H]1O (stereo partly specified) | inactive | 0.07 | inactive | inactive | inactive | 65 (≈ 20.1 µg/mL) | 40 (≈ 12.4 µg/mL) | inactive | >650 | 5.40 | 18 | inactive | >650
C#CSC[C@H]1OC(n2cnc3c(N)ncnc32)[C@H](O)[C@@H]1O (stereo partly specified) | – | 0.12 | – | – | – | – | – | – | 30 | 5.00 | 36 | – | –
N#CSC[C@H]1OC(n2cnc3c(N)ncnc32)[C@H](O)[C@@H]1O (stereo partly specified) | – | 0.59 | – | – | – | – | – | – | >650 | 4.17 | 16 | – | –
